Structures can show the parent of a compound that is named as a salt. Where two headings read alike, the source gives them in different places.

For assay [1], the target named is T1, SARS-CoV-2 PLpro (nsp3 1564–1878) (Severe acute respiratory syndrome coronavirus 2, UniProt P0DTD1). Kind of assay: biochemical. Conditions: read-out: % of control remaining. Also noted: FRET-quenched peptide (Pro3) cleavage by PLpro, 10 min pre-incubation, slope over 20 min, normalised to no-compound control.
Assay [2] has as its target T1, SARS-CoV-2 PLpro (nsp3 1564–1878). Briefly: biochemical. Conditions: read-out: % of control remaining. Also noted: FRET-quenched peptide (Pro3) cleavage by PLpro, 10 min pre-incubation, slope over 20 min, normalised to no-compound control. The source holds these as a separate data set.

Regarding `Cc1cnc(C(=O)NCCc2ccc(S(=O)(=O)NC(=O)NC3CCCCC3)cc2)cn1` [Glipizide], the remaining activity at 1.25 µM in assay [1] (Well no.=700, low concentration screen) was found to be 91.5%; in assay [1] (Well no.=1605, low concentration screen) it was 96.2%. The remaining activity at 3.75 µM worked out at 94.3% in assay [2] (Well no.=700, high concentration screen) and 93% in assay [2] (Well no.=1605, high concentration screen).
With `NCCCCN` [Putrescine dihydrochloride], the remaining activity at 1.25 µM in assay [1] (Well no.=1205, low concentration screen) amounted to 103%. The remaining activity at 3.75 µM in assay [2] (Well no.=1205, high concentration screen) turned out to be 102%.
As for `CC1(C)C[C@@H]1C(=O)N/C(=C\CCCCSC[C@H](N)C(=O)O)C(=O)O` [Cilastatin], the remaining activity at 1.25 µM in assay [1] (Well no.=2198, low concentration screen) came out at 94.3%. The remaining activity at 3.75 µM in assay [2] (Well no.=2198, high concentration screen) was 95.6%.
`O=C1C=CC(=O)C=C1` [p-Benzoquinone]: the remaining activity at 1.25 µM in assay [1] (Well no.=166, low concentration screen) was found to be 102%. The remaining activity at 3.75 µM in assay [2] (Well no.=166, high concentration screen) was found to be 105%.
For `Nc1nc(N)nc(-c2cc(Cl)ccc2Cl)n1` [Irsogladine], the remaining activity at 1.25 µM in assay [1] (Well no.=2148, low concentration screen) came to 98.6%; in assay [1] (Well no.=7629, low concentration screen), 94%. Further, the remaining activity at 3.75 µM was 98.3% in assay [2] (Well no.=2148, high concentration screen) and 88.4% in assay [2] (Well no.=7629, high concentration screen).
As to `C[C@H]1C(=O)CC[C@@H]2[C@]1(C)CC[C@H]1[C@@]2(C)CC[C@@]2(C)[C@@H]3CC(C)(C)CC[C@]3(C)CC[C@]12C` [Friedelin], the remaining activity at 1.25 µM in assay [1] (Well no.=3208, low concentration screen) was found to be 109%. The remaining activity at 3.75 µM in assay [2] (Well no.=3208, high concentration screen) is 110%.
Take `C[N+]1(C)[C@@H]2C[C@@H](OC(=O)[C@H](CO)c3ccccc3)C[C@H]1[C@@H]1O[C@@H]12` [Methscopolamine (bromide)]: the remaining activity at 1.25 µM in assay [1] (Well no.=8297, low concentration screen) turned out to be 97.7%. For the same compound, the remaining activity at 3.75 µM in assay [2] (Well no.=8297, high concentration screen) came to 96.8%.
Turning to `C[C@@]12CCc3occc3[C@H]1CC[C@]13CC(=O)[C@H](CC[C@H]12)C3` [16-Oxocafestol], in assay [1] (Well no.=3669, low concentration screen), the remaining activity at 1.25 µM is 92.6%. The remaining activity at 3.75 µM in assay [2] (Well no.=3669, high concentration screen) worked out at 91.5%.
Take `CCCCCCCCCCCCCC(=O)O[C@@H]1[C@@H](C)[C@@]2(O)[C@@H](C=C(CO)C[C@@]3(O)C(=O)C(C)=C[C@@H]23)[C@@H]2C(C)(C)[C@]12OC(C)=O` (racemic): the remaining activity at 1.25 µM in assay [1] (Well no.=3080, low concentration screen) was found to be 98.8%. In assay [2] (Well no.=3080, high concentration screen), the remaining activity at 3.75 µM stood at 98.9%.
With `COc1cc2ncnc(Nc3ccc(O)cc3)c2cc1OC` [WHI-P131], the remaining activity at 1.25 µM in assay [1] (Well no.=1338, low concentration screen) was 93.8%. In assay [2] (Well no.=1338, high concentration screen), the remaining activity at 3.75 µM worked out at 97.1%.
In the case of `N=C(N)c1ccc2nc(-c3cc(CC(=O)N[C@@H](CC(=O)O)C(=O)O)cc(-c4cc(S(N)(=O)=O)ccc4O)c3O)[nH]c2c1` [PCI-27483], the remaining activity at 1.25 µM in assay [1] (Well no.=8564, low concentration screen) was 104%. Further, the remaining activity at 3.75 µM in assay [2] (Well no.=8564, high concentration screen) came out at 102%.
With `CCCCCC(O)/C=C/C=O` (racemic), in assay [1] (Well no.=4337, low concentration screen), the remaining activity at 1.25 µM stood at 104%. Moreover, the remaining activity at 3.75 µM in assay [2] (Well no.=4337, high concentration screen) was found to be 102%.
With `Cc1[nH]c2ccccc2c1CCNC(=O)c1ccccc1F` [CK-666], the remaining activity at 1.25 µM in assay [1] (Well no.=5720, low concentration screen) is 95.1%. The remaining activity at 3.75 µM in assay [2] (Well no.=5720, high concentration screen) is 95.4%.
For the compound `CCN1CC(CCN2CCOCC2)C(c2ccccc2)(c2ccccc2)C1=O` (centres unmarked) [Doxapram HCl], the remaining activity at 1.25 µM in assay [1] (Well no.=5120, low concentration screen) worked out at 98.8%. Also, the remaining activity at 3.75 µM in assay [2] (Well no.=5120, high concentration screen) came out at 96.1%.
As to `N#CN=C(NCCCCCCOc1ccc(Cl)cc1)Nc1ccncc1` [GMX1778 (CHS828)], the remaining activity at 1.25 µM in assay [1] (Well no.=8486, low concentration screen) came out at 93.1%. The remaining activity at 3.75 µM in assay [2] (Well no.=8486, high concentration screen) is 95.9%.
`CCC(C)(C)C(=O)O[C@H]1C[C@@H](C)C=C2C=C[C@H](C)[C@H](CC[C@@H]3C[C@@H](O)CC(=O)O3)[C@H]21` [Simvastatin]: in assay [1] (Well no.=1620, low concentration screen), the remaining activity at 1.25 µM is 107%. In assay [2] (Well no.=1620, high concentration screen), the remaining activity at 3.75 µM was found to be 107%.
Take `C[C@H](O)[C@@H](O)[C@@H](O)[C@H](O)C=O` [(-)-Fucose]: the remaining activity at 1.25 µM in assay [1] (Well no.=6549, low concentration screen) was 98.1%. Further, the remaining activity at 3.75 µM in assay [2] (Well no.=6549, high concentration screen) was determined as 91.4%.
With `O=C(Nc1cc(Cl)cc2c1[nH]c1cnccc12)c1cccnc1` [IKK Inhibitor X], the remaining activity at 1.25 µM in assay [1] (Well no.=2445, low concentration screen) came to 97.8%. The remaining activity at 3.75 µM in assay [2] (Well no.=2445, high concentration screen) stood at 101%.
`COc1cc(/C=C/c2ccccc2)oc(=O)c1` [5,6-Dehydrokawain]: the remaining activity at 1.25 µM in assay [1] (Well no.=3559, low concentration screen) came out at 105%. In assay [2] (Well no.=3559, high concentration screen), the remaining activity at 3.75 µM was found to be 103%.
As to `OCc1ccc(O)cc1` [4-Hydroxybenzyl alcohol], the remaining activity at 1.25 µM in assay [1] (Well no.=6876, low concentration screen) turned out to be 98.2%. The remaining activity at 3.75 µM in assay [2] (Well no.=6876, high concentration screen) was 95.1%.
For the compound `CCCCC1(C2CCCC2)Cc2cc(OCC(=O)O)c(Cl)c(Cl)c2C1=O` (stereo in doubt) [R(+)-Butylindazone], in assay [1] (Well no.=640, low concentration screen), the remaining activity at 1.25 µM was found to be 97.4%. Moreover, the remaining activity at 3.75 µM in assay [2] (Well no.=640, high concentration screen) was found to be 101%.
For `C=C[C@H]1CN2CC[C@H]1C[C@@H]2[C@@H](O)c1ccnc2ccccc12` [Cinchonine], the remaining activity at 1.25 µM in assay [1] (Well no.=7012, low concentration screen) came out at 97.3%. Further, the remaining activity at 3.75 µM in assay [2] (Well no.=7012, high concentration screen) came to 93.6%.
For the compound `Cc1c(OCC(F)(F)F)ccnc1C[S+]([O-])c1nc2ccccc2[nH]1` (centres unmarked) [Lansoprazole], the remaining activity at 1.25 µM in assay [1] (Well no.=1075, low concentration screen) was 98.5%. Also, the remaining activity at 3.75 µM in assay [2] (Well no.=1075, high concentration screen) was found to be 98.7%.
With `Cc1nc2n(c(=O)c1CCN1CCC(c3noc4cc(F)ccc34)CC1)CCCC2` [Risperidone], the remaining activity at 1.25 µM amounted to 103% in assay [1] (Well no.=1306, low concentration screen) and 100% in assay [1] (Well no.=1606, low concentration screen). For the same compound, the remaining activity at 3.75 µM in assay [2] (Well no.=1306, high concentration screen) is 103%; in assay [2] (Well no.=1606, high concentration screen), 102%.
Regarding `CN1[C@@H]2CC[C@H]1CC(O)C2` (some centres unmarked) [Tropine], the remaining activity at 1.25 µM in assay [1] (Well no.=3469, low concentration screen) stood at 105%. Moreover, the remaining activity at 3.75 µM in assay [2] (Well no.=3469, high concentration screen) amounted to 106%.
Consider `COc1ccc(OC)c2c(=S)c3ccccc3[nH]c12` [Cdk4 Inhibitor II, NSC 625987], for which the remaining activity at 1.25 µM in assay [1] (Well no.=2406, low concentration screen) is 102%. In addition, the remaining activity at 3.75 µM in assay [2] (Well no.=2406, high concentration screen) stood at 108%.
Regarding `CCOC(=O)[C@H](Cc1ccc([N+](=O)[O-])cc1)NC(=O)c1ccccc1` [SB297006], the remaining activity at 1.25 µM in assay [1] (Well no.=8132, low concentration screen) was determined as 103%. Also, the remaining activity at 3.75 µM worked out at 97.6% in assay [2] (Well no.=8132, high concentration screen) and 102% in assay [2] (Well no.=8211, high concentration screen).
For the compound `CC(C)c1nn(-c2c(Cl)cccc2Cl)c2nc(Cc3ccc(OCCO)cc3)[nH]c(=O)c12` [Cdk/Crk Inhibitor], the remaining activity at 1.25 µM in assay [1] (Well no.=2420, low concentration screen) is 105%. Further, the remaining activity at 3.75 µM in assay [2] (Well no.=2420, high concentration screen) was found to be 105%.
In the case of `C[C@]12CC[C@H](O)C[C@H]1CC[C@@H]1[C@@H]2CC[C@]2(C)[C@@H](C3=CC(=O)OC3)[C@@H](O)C[C@]12O` [Gitoxigenin], the remaining activity at 1.25 µM in assay [1] stood at 105%. In assay [2], the remaining activity at 3.75 µM was 104%.
Regarding `O=C1NCCN1CCN1CCC(c2cn(-c3ccc(F)cc3)c3ccc(Cl)cc23)CC1` [Sertindole], the remaining activity at 1.25 µM in assay [1] (Well no.=5420, low concentration screen) was 98.4%; in assay [1] (Well no.=6604, low concentration screen), 93.4%. Besides, the remaining activity at 3.75 µM in assay [2] (Well no.=5420, high concentration screen) came to 102%; in assay [2] (Well no.=6604, high concentration screen), 96.1%.
Turning to `COc1cn(-c2ccc(-n3cccn3)cc2F)nc(-c2ccnn2-c2ccccc2)c1=O` [TAK-063], the remaining activity at 1.25 µM in assay [1] (Well no.=8728, low concentration screen) was determined as 98.2%. In addition, the remaining activity at 3.75 µM in assay [2] (Well no.=8728, high concentration screen) was 94.2%.
